In patent US20190076440A1, “TREATMENT OF TISSUE DISORDERS” (priority 2016, published 2019):

Experiments:
[1] = test system: MCDS mice (homozygous N617K collagen X mutation); experiment: Tibial growth plate histology, immunohistochemistry, in situ hybridisation and TRAP staining in MCDS mice; assay type: in vivo, mouse
Experimental: (§1) FIG. 2 illustrates the effect of carbamazepine on the growth plate pathology associated with MCDS. 3 week old MCDS mice were treated with CBZ for a period of one week. Untreated MCDS mice and mice wild-type for collagen X (WT) were used as controls. (a) H+E staining of the tibial growth plate at 4 weeks of age. (b) Immunohistochemistry for Grp78 and (c) Immunohistochemistry for collagen X. Yellow bars show the hypertrophic zone. Scale bars equal to 100 μM in all cases. (d) is a table showing growth plate zone measurements at 4 weeks of age. Mean±SEM. Number of animals shown in brackets. Significance between mutant untreated mice and treated mice shown by the asterisk. (e) Western blots of rib growth plate cartilage at 4 weeks of age for Grp78, ATF4, p62/SQSTM1 and LC3-II alongside the associated coomassie blue stain used as a loading control. Quantification of these blots against the coomassie protein level is shown in supplementary S4. (f) X-ray images of the pelvis at 6 weeks of age. The angle between the lines was measured in a minimum of 5 animals and a graph showing the mean±SEM is shown in (g). Graphs showing the percentage increase in growth of the (h) tibia and (i) femur from 3 weeks of age.
FIG. 3 illustrates the effect of carbamazepine on chondrocyte differentiation MCDS mice were treated with CBZ for 1 week. In situ hybridisation for a) collagen X mRNA levels b) Collagen II mRNA levels c) Osteopontin mRNA levels d) MMP13 mRNA levels. e) TRAP staining for osteoclast number, osteoclasts shown by the white asterisks. (f) Quantification of the number of osteoclasts per mm of vascular invasion front. Mean±SEM. (g) H+E image showing the terminal hypertrophic chondrocytes at the vascular invasion front. g) The height of the most terminal hypertrophic chondrocytes (within the red bracket) was measured, and mean±SEM is shown in (h). Hypertrophic zone marked by the yellow bar. Vascular invasion front shown by the orange line. Scale bar equal to 100 μM in all cases. Mean±SEM (*P<0.05 **P<0.005 ***P<0.0005).
The generation and genotyping of the Col10a1 p.N617K mouse line has been described previously (Rajpar et al 2009). Mice homozygous for the MCDS-causing N617K collagen X mutation were x-rayed at 3 weeks of age and treated with carbamazepine (250 mg/kg/day) for up to 21 days via a subcutaneous implantation of a slow-release pellet (Innovative research of America USA C-113) whilst the mouse was under anaesthetic. The incision was sutured closed, glued using Vetbond tissue adhesive (Santa-Cruz sc-361931) and the mice given an appropriate dose of buprenorphine painkiller depending on their body weight. Male mice were X-rayed once per week in order monitor bone growth; female mice were sacrificed after 1 week of treatment either by cervical dislocation or by carbon dioxide overdose under the provisions of the Animals (Scientific Procedures) Act 1986 and tissues collected for histological analysis. All procedures were carried out according to Home Office regulations.
Hind limbs were dissected and fixed overnight in ice-cold 4% paraformaldehyde (w/v) in 1×DEPC-PBS or 95% ethanol/5% acetic acid (v/v), and decalcified in 0.8 M ethyl-diamine tetracetic acid (EDTA) pH 7.4 for a period of one week. The samples were embedded in paraffin wax and sectioned sagittally using a cool-cut HM 355 S microtime (MicRom) generating 5 μm thick sections. Sections were collected on positively charged superfrost slides (VWR) and dried overnight prior to histological staining, immunohistochemistry or in situ hybridisation.
H+E staining was performed as described previously ^10 and images taken using a Carl Zeiss Axiovision microscope fitted with an Axiocam colour CCD camera and associated Axiovision software.
Growth plate zone widths were measured on images of known magnification as described previously (Rajpar et al 2009). […]

[2] = test system: MCDS mice (homozygous N617K collagen X mutation); experiment: Western blots of rib growth plate cartilage of MCDS mice; assay type: in vivo, mouse; details: 1 week
Experimental: as §1
FIG. 8 illustrates the quantification of western blots on mouse rib growth plate tissue MCDS mice were treated with CBZ for a period of one week. Untreated MCDS mice and mice wild-type for collagen X (WT) were used as controls. Rib cages were dissected, treated with collagenase for 2 hours and cartilage growth plates were further dissected from each individual rib. Growth plates were pooled from 3 individual mice and protein extracted in SDS-PAGE buffer. 20 μg was used in SDS-PAGE and western blotting. Quantification of (a) BiP, (b) ATF4, (c) p62 and (d) LC3B protein levels against the coomassie protein level. Mean±SEM of three independent experiments;
The generation and genotyping of the Col10a1 p.N617K mouse line has been described previously (Rajpar et al 2009). Mice homozygous for the MCDS-causing N617K collagen X mutation were x-rayed at 3 weeks of age and treated with carbamazepine (250 mg/kg/day) for up to 21 days via a subcutaneous implantation of a slow-release pellet (Innovative research of America USA C-113) whilst the mouse was under anaesthetic. […]
Rib-cages from 4 week old mice were dissected and placed in collagenase medium for 1-2 hours, after which the cartilage growth plates were collected using a dissecting microscope. […] The supernatant was collected and analysed by SDS-PAGE.
The protein concentration of samples was determined using a Pierce bicinchoninic acid (BCA) protein assay with a bovine serum albumin standard curve. […]

## NC(=O)N1c2ccccc2C=Cc2ccccc21 [CBZ, Carbamazepine]
[1]; 250 mg/kg body weight/day, 1 week, vs untreated MCDS controls
  size of the hypertrophic zone: significant reduction
[1]; 1 week
  BiP protein in growth plate sections (immunostaining): reduced
[1]; CBZ for 1 week
  expression pattern of collagen X, collagen II, OPN and MMP13 (in situ hybridisation): altered the expression pattern of each of these markers towards that seen in the WT mouse
  hypertrophy, based on the height of the terminal hypertrophic chondrocytes: enhanced
  osteoclast recruitment to the vascular invasion front (TRAP staining): partially restored
[1]; tibial growth plate, 1 week
  level of extracellular collagen X (immunohistochemistry): no overt increase
  level of intracellular collagen X (immunohistochemistry): reduced
[2]; MCDS mice
  concentration of the autophagy substrate p62 in growth plate extracts: decrease
[2]; MCDS mice, autophagy marker
  LC3B-II protein in growth plate extracts: increase
[2]; treated vs untreated MCDS mice
  ATF4 level on western blots of growth plate extracts: significantly reduced
  BiP level on western blots of growth plate extracts: significantly reduced
